Key:
ApAPEH (ApAAP) = target: T1, ApAPEH (ApAAP) (Aeropyrum pernix, UniProt Q9YBQ2); experiment: hydrolysis of p-nitroanilide substrate; format: biochemical
T1 construct: gene APE_1547.1; produced by the authors; details only in Data S1 chapter II

PhAPEH (PhAAP) = target: T2, PhAPEH (PhAAP) (Pyrococcus horikoshii, UniProt O58323); experiment: hydrolysis of p-nitroanilide substrate; format: biochemical
T2 construct: gene PH0594; produced by the authors; details only in Data S1 chapter II
T2 sequence (O58323 1-622): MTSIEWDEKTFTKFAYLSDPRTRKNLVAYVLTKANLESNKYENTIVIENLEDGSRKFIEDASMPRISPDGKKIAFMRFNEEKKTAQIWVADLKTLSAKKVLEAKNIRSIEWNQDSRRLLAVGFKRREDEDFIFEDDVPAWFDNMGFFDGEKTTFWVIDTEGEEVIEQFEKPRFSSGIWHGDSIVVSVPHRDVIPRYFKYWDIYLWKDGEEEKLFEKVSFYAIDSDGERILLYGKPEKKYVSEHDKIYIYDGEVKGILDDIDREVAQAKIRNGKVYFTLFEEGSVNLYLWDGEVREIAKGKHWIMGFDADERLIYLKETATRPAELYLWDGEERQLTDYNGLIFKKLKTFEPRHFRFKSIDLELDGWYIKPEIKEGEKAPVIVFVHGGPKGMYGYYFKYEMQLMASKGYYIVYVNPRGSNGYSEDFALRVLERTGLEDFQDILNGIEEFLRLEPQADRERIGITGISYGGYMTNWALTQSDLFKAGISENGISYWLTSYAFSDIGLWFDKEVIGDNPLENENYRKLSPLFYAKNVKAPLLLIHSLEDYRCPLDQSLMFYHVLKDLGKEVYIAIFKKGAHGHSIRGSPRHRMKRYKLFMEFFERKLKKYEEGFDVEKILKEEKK

[1] = target: T3, pAPEH (porcine liver acylpeptide hydrolase, acylaminoacyl-peptidase, AAP) (Sus scrofa, UniProt P19205); experiment: cryo-EM structure of complex ([…] A); format: binding; settings: covalent; Ser587 and His707; 10-fold molar excess, pH 7.5, 37 °C, 1 h
T3 construct: gene APEH; native, purified from porcine liver; homotetramer; catalytic Ser587, Asp675, His707
T3 sequence (P19205 1-732): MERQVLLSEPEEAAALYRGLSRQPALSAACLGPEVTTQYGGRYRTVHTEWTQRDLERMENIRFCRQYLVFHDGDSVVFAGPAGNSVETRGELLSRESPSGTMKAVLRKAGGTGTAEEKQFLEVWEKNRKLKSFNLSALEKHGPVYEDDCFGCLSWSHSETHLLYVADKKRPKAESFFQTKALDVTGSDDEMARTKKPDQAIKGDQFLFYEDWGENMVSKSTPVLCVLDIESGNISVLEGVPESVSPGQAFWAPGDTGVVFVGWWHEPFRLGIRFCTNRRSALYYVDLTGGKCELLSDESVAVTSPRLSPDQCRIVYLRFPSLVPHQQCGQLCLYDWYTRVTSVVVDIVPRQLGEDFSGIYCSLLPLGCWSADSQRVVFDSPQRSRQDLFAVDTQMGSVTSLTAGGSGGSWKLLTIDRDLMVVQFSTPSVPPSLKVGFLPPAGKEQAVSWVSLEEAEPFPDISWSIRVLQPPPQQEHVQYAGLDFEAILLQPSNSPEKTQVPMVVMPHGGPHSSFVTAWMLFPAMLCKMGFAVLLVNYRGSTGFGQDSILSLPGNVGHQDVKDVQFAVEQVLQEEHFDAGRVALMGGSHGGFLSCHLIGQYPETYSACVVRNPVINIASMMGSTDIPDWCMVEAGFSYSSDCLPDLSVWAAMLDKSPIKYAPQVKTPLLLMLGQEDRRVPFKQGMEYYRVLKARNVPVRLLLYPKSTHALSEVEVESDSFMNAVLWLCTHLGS

[2] = target: T3, pAPEH (porcine liver acylpeptide hydrolase, acylaminoacyl-peptidase, AAP); format: binding
[3] = target: T3, pAPEH (porcine liver acylpeptide hydrolase, acylaminoacyl-peptidase, AAP); format: binding; remark: listed apart in the source

T1 sequence (Q9YBQ2 whole entry): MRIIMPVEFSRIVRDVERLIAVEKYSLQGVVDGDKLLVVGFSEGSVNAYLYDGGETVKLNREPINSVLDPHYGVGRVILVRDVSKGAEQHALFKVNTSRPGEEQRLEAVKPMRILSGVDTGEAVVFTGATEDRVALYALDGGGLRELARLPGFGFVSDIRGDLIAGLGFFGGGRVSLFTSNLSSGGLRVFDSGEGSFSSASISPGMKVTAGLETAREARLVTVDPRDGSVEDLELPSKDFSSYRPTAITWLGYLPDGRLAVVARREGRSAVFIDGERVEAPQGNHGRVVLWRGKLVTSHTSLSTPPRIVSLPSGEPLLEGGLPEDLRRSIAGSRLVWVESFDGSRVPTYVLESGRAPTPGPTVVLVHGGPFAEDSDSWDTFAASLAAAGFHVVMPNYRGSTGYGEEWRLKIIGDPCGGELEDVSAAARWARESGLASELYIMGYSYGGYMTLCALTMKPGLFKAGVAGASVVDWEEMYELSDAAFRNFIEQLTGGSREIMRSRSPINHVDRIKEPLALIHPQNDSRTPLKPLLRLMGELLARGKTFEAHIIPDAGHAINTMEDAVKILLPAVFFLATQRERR

CC(=O)N[C@@H](CC(C)C)C(=O)Nc1ccc([N+](=O)[O-])cc1 [Ac-Leu-pNA]
hydrolysis of p-nitroanilide substrate (ApAPEH (ApAAP)): archaeal variants are quite selective toward their specific substrate Ac‐Leu‐pNA
hydrolysis of p-nitroanilide substrate (PhAPEH (PhAAP)): archaeal variants are quite selective toward their specific substrate Ac‐Leu‐pNA

CC(=O)N[C@@H](C)C(=O)CCl [ligand 1, acetyl-alanyl-chloromethyl ketone]
cryo-EM structure of complex (3.19 A) [1]: bound covalently to the active Ser587 and His707 (Figure 2a) of each monomer

COP(=O)(OC)OC=C(Cl)Cl [ligand 2, dichlorvos]
cryo-EM structure of complex (2.65 A) [2]: Dimethoxy‐phosphate (DMP) residue of dichlorvos is bound covalently to the active Ser587

NCCc1ccc(S(=O)(=O)F)cc1 [ligand 3, 4-(2-aminoethyl)benzenesulfonyl fluoride]
cryo-EM structure of complex (2.78 A) [3]: thus the inhibitor directly coordinates to the active Ser

Reference: article PMC12514842, “Ligand binding Pro‐miscuity of acylpeptide hydrolase, structural analysis of a detoxifying serine hydrolase” (Protein Science : A Publication of the Protein Society, 2025)
